The values that follow come from US20230190707A1, “COMPOSITIONS AND METHODS FOR ENHANCING CANCER IMMUNOTHERAPY” (FRED HUTCHINSON CANCER CENTER, priority 2020, published 2023).

Data set [1] deals with B16-F10, MC38, and CT26 cells. The data set can be described thus: In vitro growth after ex vivo indisulam treatment and drug washout. It is filed as cell-based, mouse. The conditions noted are these: ex vivo 1 μM for four days followed by drug washout. Here is the method:
(§1) Unless otherwise specified, cell lines were treated with splicing inhibitors at the indicated concentrations for 96 hours in vitro, harvested and washed three times with PBS in excess to remove all drug, and then used for downstream analyses and/or subsequent studies, including phenotyping, RNA-seq analyses, continued growth in vitro, or tumor challenge in vivo into syngeneic animals.

Data set [2] relates to B16-F10, MC38, and CT26 cells. Nature of the data set: In vivo tumor challenge with ex vivo indisulam-treated cells in syngeneic mice. Further details: species or system mouse. How it is done: as §1
Unless otherwise specified, syngeneic B6 or Balb/c mice were engrafted subcutaneously on bilateral flanks with MC38, B16-F10, CT26 or LLC tumor cells at the following doses: MC38 10^6 cells, B16-F10 0.5×10^6 cells, CT26 0.25×10^6 cells, LLC 0.25×10^6 cells. Tumors were measured serially twice or three times weekly and tumor volumes were estimated by length×width×height. Animals were monitored daily for survival and weighed twice weekly. Experimental endpoints mandating euthanasia were approved by the IACUC and included: animal lethargy, severe kyphosis or evidence of pain, difficulty with ambulation or feeding, tumor ulceration>1 cm or bleeding tumor, evidence of infected tumor, tumor volumes exceeding 2.5 cm^3, or animal total body weight loss>10% from baseline.

Data set [3] concerns LLC tumors. Nature of the data set: Therapeutic treatment with indisulam and anti-PD1, LLC tumors. The class given is in vivo, mouse. The conditions noted are these: syngeneic C57BL/6; indisulam 25 mg/kg i.v.; anti-PD1 250 μg. From the text:
(§2) Mice were weighed weekly for weight-based drug dosing.

In data set [4] the target is T1, RBM39 (Mus musculus, UniProt Q6PFH3+Q8VH51).
T1 construct: endogenous in cells; host or cells: B16-F10 (also MC38, CT26, LLC)
The data set can be described thus: RBM39 protein in tissues after in vivo indisulam. The note with it: therapeutic indisulam doses. How it is done:
(§3) Western blotting was performed as per standard techniques. Anti-RBM39 (Atlas Antibodies, Cat. HPA001591 or Bethyl laboratories, Cat. A300-291A) were used to detect RBM39 degradation. ADMA and SDMA levels were determined using antibodies from Cell Signaling Technologies (Cat. 13222S and Cat. 135225). Actin antibody (clone AC-15) was obtained from MilliporeSigma (Cat. A5441-.2ML). Densitometry of RBM39 and actin loading control was performed using ImageJ software in order to calculate RBM39 degradation IC50 values.
as §2

Data set [5] has as its target H-2D^b (Mus musculus, UniProt P01899). Nature of the data set: MHC I immunoprecipitation and LC-MS/MS, H-2D^b. It is filed as cell-based. The text has this:
(§4) Peptide-MHC complexes were isolated as previously described (Abelin, J. G., et al. (2017). Mass Spectrometry Profiling of HLA-Associated Peptidomes in Mono-allelic Cells Enables More Accurate Epitope Prediction. Immunity 46, 315-326, incorporated herein by reference in its entirety), with the following modifications: anti-mouse H-2D^b (clone B22-249.R1, CedarLane laboratories, Cat. CL9001AP) or H-2K^b (clone Y-3, BioXCell Cat. BE0172) non-covalently linked to GammaBind Plus Sepharose beads were co-incubated with soluble lysates overnight. […]
(§5) Desalted, dried samples enriched for MHC peptides were resolubilized in 8 uL 0.10% TFA and 3 uL were loaded onto a packed-in-emitter 12 cm/75 um ID/3 um C18 particles column (Nikkyo Technos Co., Ltd. Japan). […] Precursor mass spectra were recorded from m/z 300-1500 m/z range at 60,000 resolution. […] MS/MS spectra were recorded at 30,000 resolution and lowest mass set at m/z 110. […] All experiments were recorded in FT-mode.
(§6) Mass spectra from all MHC immunoprecipitations were analyzed using Proteome Discoverer v2.4.1.15, with the following workflow. […]

Data set [6] addresses H-2K^b (Mus musculus, UniProt P01901). The data set can be described thus: MHC I immunoprecipitation and LC-MS/MS, H-2K^b. The class given is cell-based.
Source text: as §4, §5, §6

The test system of data set [7] is asymmetric dimethyl arginines (ADMA). Nature of the data set: ADMA levels by western blot after MS-023. The note with it: MC38 cells, 5 μM for 96 hours. The class given is cell-based, mouse. Here is the method:
as §1, §3

For data set [8], the system named is MC38 cells. The data set can be described thus: In vitro growth of MC38 cells after MS-023 treatment and washout. It is filed as cell-based, mouse. The note with it: 5 μM for 96 hours. How it is done:
as §1

The subject of data set [9] is MC38 tumors. The data set can be described thus: Therapeutic treatment with splicing compounds and anti-PD1, MC38 tumors. It is filed as in vivo, mouse. The note with it: three months following tumor implantation.
Experimental: (§7) Animals were subcutaneously engrafted on bilateral flanks with tumor cells (MC38 1×10^6, B16-F10 0.5×10^6 and LLC 0.25×10^6 cells unless otherwise specified) on day 0, and treated continuously with splicing inhibitors (MS-023 50 mg/kg i.p., indisulam 25 mg/kg i.v. or vehicle) daily for 5 of 7 weekly days starting from day +3 of tumor challenge. […] Mice were weighed weekly for weight-based drug dosing.
Data set [10] in a line: Peripheral blood counts after extended treatment. The note with it: three weeks, with or without anti-PD1.
Experimental: as §7

Sequence of H-2K^b (P01901 22-369 limits assumed): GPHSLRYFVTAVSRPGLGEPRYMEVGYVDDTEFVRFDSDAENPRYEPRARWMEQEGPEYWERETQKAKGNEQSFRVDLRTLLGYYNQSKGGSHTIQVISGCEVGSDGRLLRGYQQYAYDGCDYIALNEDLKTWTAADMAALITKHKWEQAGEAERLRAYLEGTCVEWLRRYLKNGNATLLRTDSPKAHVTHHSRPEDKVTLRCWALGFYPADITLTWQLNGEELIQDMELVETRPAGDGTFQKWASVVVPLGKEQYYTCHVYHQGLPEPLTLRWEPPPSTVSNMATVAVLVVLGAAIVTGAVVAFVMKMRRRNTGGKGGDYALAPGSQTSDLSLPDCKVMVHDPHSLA
Sequence of H-2D^b (P01899 25-362 limits assumed): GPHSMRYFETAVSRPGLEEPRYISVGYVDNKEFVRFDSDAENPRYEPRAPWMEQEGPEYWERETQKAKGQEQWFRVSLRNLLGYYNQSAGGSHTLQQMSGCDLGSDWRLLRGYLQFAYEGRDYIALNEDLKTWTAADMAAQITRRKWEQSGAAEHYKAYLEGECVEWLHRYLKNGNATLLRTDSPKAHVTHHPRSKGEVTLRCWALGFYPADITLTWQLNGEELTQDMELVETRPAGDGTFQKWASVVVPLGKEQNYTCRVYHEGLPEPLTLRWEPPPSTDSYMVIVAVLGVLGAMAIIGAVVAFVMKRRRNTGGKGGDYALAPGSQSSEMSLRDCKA

As to `NS(=O)(=O)c1ccc(S(=O)(=O)Nc2cccc3c(Cl)c[nH]c23)cc1` [indisulam], in [1], the “subsequent cell proliferation or apoptosis” value is “minimal effects”. Moreover, the “tumor growth following engraftment into syngeneic, immunocompetent mice” value in data set [2] (cells treated ex vivo 1 μM four days, drug washout) is “strikingly durable growth inhibition”. In addition, in [2] (exposure to increasing drug concentrations (CT26; 10, 100, 1000 nM, 96 hours)), the animal survival result is “improved animal survival”. In data set [3], the “growth of LLC tumors in vivo” value is on record as “inhibited tumor growth”. Besides, the “RBM39 protein in tumoral as well as immune tissues in vivo” value in [4] is “on-target RBM39 protein reduction”. The “peptides only recovered from indisulam-treated samples” value in [5] (B16-F10 cells) stood at 518; in data set [6] (B16-F10 cells) it was 366. For the same compound, the “bound peptides arising from mRNA isoforms specifically promoted by indisulam treatment” value in data set [5] (intersection with RNA-seq) is 42; in data set [6] (intersection with RNA-seq), 28.
With `CC(C)Oc1ccc(-c2c[nH]cc2CN(C)CCN)cc1` [MS-023], in data set [7], the “asymmetric dimethyl arginines (ADMA)” value is listed as “globally reduced”. Further, the “cell growth in vitro after drug washout” value in data set [8] is reported as “minimal effects”. The “mice alive and tumor-free” value in [9] worked out at 25%. Further, the “lymphocytes, neutrophils, or other peripheral blood counts” value in data set [10] is listed as “negligible effects”.
